By inhibition is commonly meant how much of the control response was suppressed. A word on the IC50: it is the point on the concentration scale where inhibition reaches its midpoint.

Consider 19 compounds from patent publication US8349846B2, “Fused pyrimidine derivatives as TRPV3 modulators” (Glenmark Pharmaceuticals, S.A., priority 2008, dated 2013).

The experiment addresses T1, Human TRPV3 (Homo sapiens, UniProt Q8NET8).
T1 construct: expressed in transfected cells; host or cells: CHO cells (selected with G-418)
T1 sequence (Q8NET8 1-790): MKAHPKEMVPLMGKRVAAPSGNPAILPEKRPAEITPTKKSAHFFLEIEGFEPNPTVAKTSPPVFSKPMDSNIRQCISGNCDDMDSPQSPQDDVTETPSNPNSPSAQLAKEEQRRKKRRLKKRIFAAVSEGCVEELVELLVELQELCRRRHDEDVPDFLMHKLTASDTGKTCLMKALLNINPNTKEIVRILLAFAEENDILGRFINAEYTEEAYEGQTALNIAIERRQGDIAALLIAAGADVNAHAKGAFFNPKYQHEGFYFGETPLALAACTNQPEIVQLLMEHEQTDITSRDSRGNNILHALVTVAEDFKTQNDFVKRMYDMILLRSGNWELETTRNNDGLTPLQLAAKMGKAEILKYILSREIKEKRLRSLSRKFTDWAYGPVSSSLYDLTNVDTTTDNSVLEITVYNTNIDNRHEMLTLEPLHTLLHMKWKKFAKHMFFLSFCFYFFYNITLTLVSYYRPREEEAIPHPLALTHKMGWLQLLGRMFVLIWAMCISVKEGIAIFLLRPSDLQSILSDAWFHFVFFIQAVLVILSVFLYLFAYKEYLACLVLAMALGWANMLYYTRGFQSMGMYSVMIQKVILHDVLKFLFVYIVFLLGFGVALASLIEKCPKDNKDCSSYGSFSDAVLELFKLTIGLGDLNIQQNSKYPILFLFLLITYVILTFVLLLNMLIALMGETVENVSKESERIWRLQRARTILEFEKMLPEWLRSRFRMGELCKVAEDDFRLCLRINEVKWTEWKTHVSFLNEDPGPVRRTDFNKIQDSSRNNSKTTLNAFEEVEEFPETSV
The experiment is described as follows: Screening for TRPV3 antagonist using the 45Calcium uptake assay (inhibition of 2-APB induced cellular uptake of radioactive calcium). The format is cell-based. Conditions: Human TRPV3 expressing CHO cells, 2-APB 500 μM; for inhibition at 1 µM / inhibition at 10 µM: CHO; for inhibition at 1 µM: read-out: Percentage inhibition at 1.0 μM; for inhibition at 10 µM: read-out: Percentage inhibition at 10.0 μM. The text has this: The illustrative examples of the present invention are screened for TRPV3 activity according to a modified procedure described in Tóth, A., Kedei, N., Wang, Y. and Blumberg, P. M. Life Sciences (2003), 73, 487-498. The screening of the compounds can be carried out by other methods and procedures known to a person skilled in the art. Such screening methods may be found in (a) Hu, H.-Z. et al. J. Biol. Chem. (2004), 279, 35741-35747; (b) Smith, G. D. et al. Nature (2002), 418, 186-190; (c) Peier, A. M. et al. Science (2002), 296, 2046-2049.
Screening for TRPV3 Antagonist Using the ^45Calcium Uptake Assay:
The inhibition of TRPV3 receptor activation was followed as inhibition of 2-aminoethxydiphenylborate (2-APB) induced cellular uptake of radioactive calcium. Test compounds were dissolved in dimethyl sulfoxide (DMSO) to prepare 20 mM stock solution and then diluted using plain medium with DMEM/F-12 containing 1.8 mM CaCl2 to get desired concentration. Final concentration of DMSO in the reaction was 0.5% (v/v). Human TRPV3 expressing CHO cells were grown in DMEM/F-12 medium with 10% FBS, 1% penicillin-streptomycin solution, 400 μg/ml of G-418. Cells were seeded 24 h prior to the assay in 96 well plates so as to get ˜50,000 cells per well on the day of experiment. Cells were treated with test compounds for 10 minutes followed by addition of 2-APB at a final concentration of 500 μM and 5 μCi/ml ^45Ca^+2 for 4 minutes. Cells were washed and lysed using buffer containing 1% Triton X-100, 0.1% deoxycholate and 0.1% SDS. Radioactivity in the lysate was measured in Packardt Top count after addition of liquid scintillant. Concentration response curves were plotted as a % of maximal response obtained in the absence of test antagonist. IC50 value was calculated from concentration response curve by nonlinear regression analysis using GraphPad PRISM software.
Percentage inhibition at concentrations of 1.0 μM and 10.0 μM are given in the table along with IC50 (nM) values for selected examples.

The structures appear in SMILES notation. Bounds are passed on as bounds.

On to `COc1cccc(/C=C/c2nc3ccccn3c(=O)c2-c2cccc(O)c2)c1OC1CCCC1` [Example 25, 2-{(E)-2-[2-(Cyclopentyloxy-3-methoxy)phenyl]vinyl}-3-(3-hydroxy)phenyl-4H-pyrido-[1,2-a]-pyrimidin-4-one], for which the IC50 lay in the range of 1000 to 2500 nM. Moreover, under “1.0 μM test compound”, the inhibition at 1 µM was found to be 20.7%. The inhibition at 10 µM (10.0 μM test compound) stood at 93.1%.
`COc1cccc(-c2c(/C=C/c3cccc(OC)c3OC3CCCC3)nc3ccccn3c2=O)c1` [Example 26, 2-{(E)-2-[(2-Cyclopentyloxy-3-methoxy)phenyl]vinyl}-3-(3-methoxy)phenyl-4H-pyrido-[1,2-a]pyrimidin-4-one]: under “1.0 μM test compound”, the inhibition at 1 µM is 48%. Further, the inhibition at 10 µM (10.0 μM test compound) turned out to be 69.3%.
Regarding `COc1cccc(/C=C/c2nc3ccccn3c(=O)c2-c2cccc(OC(C)C)c2)c1OC1CCCC1` [Example 27, 3-(3-Isopropoxyphenyl)-2-[(E)-2-(2-cyclopentyloxy-3-methoxy)phenylvinyl]-4H-pyrido-[1,2-a]pyrimidin-4-one], the IC50 lay within 1000 to 2500 nM. For the setting “1.0 μM test compound”, the inhibition at 1 µM is 54.2%. Where the note is “10.0 μM test compound”, the inhibition at 10 µM was found to be 77.6%.
As for `COc1cccc(/C=C/c2nc3ccccn3c(=O)c2-c2ccc(C#N)cc2)c1OC1CCCC1` [Example 28, 4-{2-[(E)-2-(2-Cyclopentyloxy-3-methoxyphenyl)vinyl]-4-oxo-4H-pyrido[1,2-a]-pyrimidin-3-yl}benzonitrile], the half-inhibitory concentration (IC50) was below 500 nM. The “Percentage inhibition at 1.0 μM” value (1.0 μM test compound) came to 83.5%. For the same compound, under “10.0 μM test compound”, the “Percentage inhibition at 10.0 μM” value is on record as 94.7%.
Consider `COc1cccc(/C=C/c2nc3ccccn3c(=O)c2-c2ccc(C(=O)O)cc2)c1OC1CCCC1` [Example 29, 4-{4-Oxo-2-[(E)-2-(2-cyclopentyloxy-3-methoxy)phenylvinyl]-4H-pyrido[1,2-a]pyrimidin-3-yl}benzoic acid], for which the inhibition at 1 µM (1.0 μM test compound) worked out at 0%. Besides, where the note is “10.0 μM test compound”, the inhibition at 10 µM worked out at 0.2%.
The like results for `COc1cccc(/C=C/c2nc3ccccn3c(=O)c2-c2ccc([N+](=O)[O-])cc2)c1OC1CCCC1` [Example 30, 2-{(E)-2-[(2-Cyclopentyloxy)-3-methoxyphenyl]vinyl}-3-(4-nitro)phenyl-4H-pyrido[1,2-a]pyrimidin-4-one] were, in that order, 52% and 76.4%.
For `COc1cccc(/C=C/c2nc3ccccn3c(=O)c2-c2cccc(NC(C)=O)c2)c1OC1CCCC1` [Example 31, N-(3-{2-[(E)-2-(2-Cyclopentyloxy-3-methoxy)phenylvinyl]-4-oxo-4H-pyrido[1,2-a]pyrimidin-3-yl}phenyl)acetamide], the inhibition at 1 µM (1.0 μM test compound) is 50.4%. Under “10.0 μM test compound”, the inhibition at 10 µM was determined as 96.2%.
On to `COc1cccc(/C=C/c2nc3ccccn3c(=O)c2-c2ccc(NC(C)=O)cc2)c1OC1CCCC1` [Example 32, N-(4-{2-[(E)-2-(2-Cyclopentyloxy-3-methoxy)phenylvinyl]-4-Oxo-4H-pyrido[1,2-a]pyrimidin-3-yl}phenyl)acetamide], for which the inhibition at 1 µM (1.0 μM test compound) was determined as 34.2%. For the setting “10.0 μM test compound”, the inhibition at 10 µM is 89.6%.
As for `COc1cccc(/C=C/c2nc3ccccn3c(=O)c2-c2ccc(C(C)=O)cc2)c1OC1CCCC1` [Example 33, 3-(4-Acetylphenyl)-2-[(E)-2-(2-cyclopentyloxy-3-methoxy)phenylvinyl]-4H-pyrido[1,2-a]pyrimidin-4-one], the IC50 was below 500 nM. Further, for the setting “1.0 μM test compound”, the inhibition at 1 µM turned out to be 78%. For the same compound, the inhibition at 10 µM (10.0 μM test compound) stood at 94.3%.
Regarding `COc1cccc(/C=C/c2nc3ccccn3c(=O)c2-c2ccc(SC)cc2)c1OC1CCCC1` [Example 34, 2-{(E)-2-[(2-Cyclopentyloxy-3-methoxy)phenyl]vinyl}-3-(4-thiomethyl)phenyl-4H-pyrido[1,2-a]pyrimidin-4-one], for the setting “1.0 μM test compound”, the inhibition at 1 µM is 36.8%. For the same compound, under “10.0 μM test compound”, the inhibition at 10 µM came out at 51.3%.
Regarding `COc1cccc(/C=C/c2nc3ccccn3c(=O)c2-c2ccncc2)c1OC1CCCC1` [Example 35, 2-{(E)-2-[2-(Cyclopentyloxy)-3-methoxyphenyl]vinyl}-3-pyridin-4-yl-4H-pyrido[1,2-a]-pyrimidin-4-one], the inhibition at 1 µM (1.0 μM test compound) is 18.4%. Further, the inhibition at 10 µM (10.0 μM test compound) came out at 63.3%.
In the case of `COc1cccc(/C=C/c2nc3ccccn3c(=O)c2-c2ccc(F)nc2)c1OC1CCCC1` [Example 36, 2-{(E)-2-[2-(Cyclopentyloxy-3-methoxy)phenyl]vinyl}-3-(6-fluoro)pyridin-3-yl-4H-pyrido[1,2-a]pyrimidin-4-one], the IC50 is 500 to 1000 nM. For the same compound, the inhibition at 1 µM (1.0 μM test compound) was found to be 42.2%. The inhibition at 10 µM (10.0 μM test compound) came out at 82.4%.
As for `COc1cccc(/C=C/c2nc3ccccn3c(=O)c2-c2ccc3c(c2)OCO3)c1OC1CCCC1` [Example 37, 3-(1,3-Benzodioxol-5-yl)-2-[(E)-2-(2-cyclopentyloxy-3-methoxy)phenylvinyl]-4H-pyrido[1,2-a]pyrimidin-4-one], the inhibition at 1 µM (1.0 μM test compound) was 70.1%. Also, the inhibition at 10 µM (10.0 μM test compound) is 91.4%.
With `COc1cccc(/C=C/c2nc3ccccn3c(=O)c2-c2ccc3c(c2)OCCO3)c1OC1CCCC1` [Example 38, 2-[(E)-2-(2-Cyclopentyloxy-3-methoxyphenyl)vinyl]-3-(2,3-dihydro-1,4-benzodioxin-6-yl)-4H-pyrido[1,2-a]pyrimidin-4-one], the IC50 was below 500 nM. Under “1.0 μM test compound”, the inhibition at 1 µM is 55.5%. Further, the inhibition at 10 µM (10.0 μM test compound) is 83.8%.
The like results for `COc1cccc(/C=C/c2nc3ccccn3c(=O)c2-c2ccc3ncccc3c2)c1OC1CCCC1` [Example 39, 2-[(E)-2-(2-Cyclopentyloxy-3-methoxy)phenylvinyl]-3-quinolin-6-yl-4H-pyrido[1,2-a]pyrimidin-4-one] were, in that order, below 500 nM, 84.6% and 96.1%.
`COc1cccc(/C=C/c2nc3c(C)cccn3c(=O)c2-c2ccc(C(F)(F)F)cc2)c1OC1CCCC1` [Example 40, 2-{(E)-2-[(2-Cyclopentyloxy-3-methoxy)phenyl]vinyl}-9-methyl-3-(4-trifluoromethyl)phenyl-4H-pyrido[1,2-a]pyrimidin-4-one]: where the note is “1.0 μM test compound”, the inhibition at 1 µM came out at 23.1%. Moreover, where the note is “10.0 μM test compound”, the inhibition at 10 µM stood at 18.7%.
The like results for `COc1cccc(/C=C/c2nc3c(OC)cccn3c(=O)c2-c2ccc(C#N)cc2)c1OC1CCCC1` [Example 41, 4-{2-[(E)-2-(2-Cyclopentyloxy-3-methoxyphenyl)vinyl]-9-methoxy-4-oxo-4H-pyrido[1,2-a]pyrimidin-3-yl}benzonitrile] were, in that order, 54.8% and 87.6%.
The like results for `COc1cccc(/C=C/c2nc3ccc(Cl)cn3c(=O)c2-c2ccc(C#N)cc2)c1OCC1CC1` [Example 42] were, in that order, 0% and 96.8%.
Regarding `COc1cccc(/C=C/c2nc3ccc(Cl)cn3c(=O)c2-c2ccc(C#N)cc2)c1OC1CCCC1` [Example 43, 4-{7-Chloro-2-[(E)-2-(2-cyclopentyloxy-3-methoxy)phenylvinyl]-4-oxo-4H-pyrido[1,2-a]pyrimidin-3-yl}benzonitrile], the IC50 was below 500 nM. Further, for the setting “1.0 μM test compound”, the inhibition at 1 µM stood at 78.7%. For the same compound, the inhibition at 10 µM (10.0 μM test compound) is 90.2%.
